Laboratory results as given in patent publication US10800806B2, “Sterol derivatives and use thereof for treating diseases involving transformed astrocyte cells or for treating malignant haemopathies” (BETA INNOV, priority 2012, dated 2020).

Tests used:
C6 cells = assay: Anti-GBM activity in vitro on cultures of C6 cells (cell counting, protein assay, MTT test); type: cell-based, rat; settings: 15 μm, ethanol 3%
Procedure: Plastic flat-bottomed 96-well culture plates (NUNC, USA) treated for cell culture (Sigma-Aldrich, ref. 114754) are used; 1500 cells are seeded per well in 200 μl of culture medium. At the time of treatment, 100 μl of pure culture medium, 100 μl of culture medium containing ethanol, or liposomes, or 100 μl of culture medium containing the active ingredients are added per well; the final volume of the culture medium, after treatment, is therefore 300 μl for all the wells.
The cultures are incubated in a Sanyo incubator (Japan, model MCO-19AlC-UV) at 37° C. and in an atmosphere with 5% CO2 and saturated in humidity. The cells are observed with an inverted microscope (Nikon Eclipse TS100, Japan) and the photographs are taken with a camera (DIGITAL camera with c-mount; LABOVER, France). The culture hood is a microbiological safety hood MSC (thermo SCIENTIFIC, model HERA SAFE KS12, France).
The type C6 cell line was obtained by Benda et al. (16) from rat brain tumours, induced by N-methylnitrosourea. This cell type is used as “in vitro” and “in vivo” model for evaluating anti-GBM potential. The lines originate from the former Strasbourg Neurochemistry Centre (U44 INSERM and UPR 416 CNRS).
The culture medium is made up of 70% Minimum Essential Medium (MEM; (Fischer Scientifique, ref. 61100) and 30% Hanks solution (SIGMA, ref. H 9269). The following are added to the culture medium: foetal calf serum (FCS; Fischer Scientifique, ref. 10108165) at a final concentration of 5% (v/v), an antibiotic solution of ciprofloxacin hydrochloride 5 μg/mL (EUROMEDEX, ref. UC5074) and a solution of Fungizone 2.5 μg/mL (INVITROGEN, ref. 15290-026). The doubling time of this cell type is 17 h. • GBM lines of human origin
The active ingredients are either dissolved in absolute ethanol (AnalaR, NORMAPUR, VWR, France) or in the form of a liposomal solution, such as 10 μl of the stock solutions diluted in 990 μl and then added to the culture wells (200 μl of culture medium) giving concentrations of 30.0, 15.0, 7.5 and 3.3 μM (final volume of culture medium per well BI-GBM: 300 μl).
When the active ingredients are in ethanolic solution, the culture medium contains […] ethanol (v/v).
A method of cell counting on photographs was used.
For example, in the case of the cultures in 96-well plates and as a function of the magnification of the microscope used (objectives×10 or ×20, oculars×10), a photograph taken represents a field of view with a diameter equal to 1/5 of the diameter of a well. Therefore the total number of cells in a well is equal to […] the number of cells per photograph. This technique was compared with a standard technique (trypsinization of the cell layer, centrifugation of the cells, suspension of the cells in physiological saline solution and counting with a THOMA cell) in the case of the C6 cells. The results obtained are identical for both methods.
The culture medium is withdrawn from each well and 50 μl of Laemmli buffer (0.1 ml of Tris, 0.8 ml of glycerol, 1.6 mL of 10% SDS, 8 ml q.s.f ultrapure water) is added per well.
In control wells, 10 μl of a solution of bovine serum albumin range (crystallized BSA, Sigma) is added; the range is from 0 to 20 μg per well. The wells are then supplemented with 40 μl of Laemmli buffer. Finally, 200 μl of solution of BCA reagent is added (Pierce, USA; BCA Protein Assay Kit; ThemoScientific, France).
The culture plates are incubated for 30 min at 37° C. The optical density for each well is read and quantified by a plate reader (BioRad, USA, iMark Microplate reader 12222) at 570 nm.
This test makes it possible to detect the cellular respiration, especially the mitochondrial respiration. The stock solution of tetrazolium salt MTT (3-(4,5-dimethylthiazol-2-yl)-2,5-diphenyl tetrazolium bromide, Sigma-Aldrich, USA, ref. M5655) is prepared with 10 mg of MIT/ml of PBS buffer (phosphate-buffered saline, SIGMA, ref. D 1408). […]

[1] = test system: Neuroblastoma (line SH-SY5Y, ATCC-CRL-2266); assay: Activity in vitro on human neuroblastomas; type: cell-based; settings: 22 μM once, concentrated liposomal form, 7 days of treatment
Procedure: They were obtained from the ATCC collection (Ref. ATCC-CRL-2266). The culture conditions are based on the recommendations in the ATCC information leaflet. • Chronic Myelomonocytic Leukaemia (CMML)
The neuroblastomas were treated with empty liposomes (controls) or with liposomes containing molecule 1.b or 2.b, 24 h after starting the culture. The cells are treated once with 22 μM of molecule 1.b or 22 μM of molecule 2.b. The liposomal form is concentrated.
For the control cells, the upper left hand photograph marked with the letter A was taken after 7 days of treatment; the lower left hand photograph marked with the letter B was taken after 28 days of treatment.
For the cells treated with the concentrated liposomal molecule 1.b, the photograph marked with the letter C (in the middle, at the top) was taken after 7 days of treatment and the photograph marked with the letter D (in the middle, at the bottom) after 28 days of treatment. For the cells treated with the concentrated liposomal molecule 2.b, the upper right hand photograph marked with the letter E was taken after 7 days of treatment.

Row | Compound | Live residual cells (C6 cells) [%] | toxicity to neuroblastoma cells compared to the control cells [1]
1 | CC(C)CCCC(C)C1CCC2C3C(OC(=O)OC(C)(C)C)C=C4CC(OC(=O)C5COC(C)(C)O5)CCC4(C)C3CCC12C (centres unmarked) [Molecule 2.a, 7-((tert-butoxycarbonyl)oxy)-10,13-dimethyl-17-(6-methylheptan-2-yl)-2,3,4,7,8,9,10,11,12,13,14,15,16,17-tetradecahydro-1H-cyclopenta[a]phenanthren-3-yl 2,2-dimethyl-1,3-dioxolane-4-carboxylate] | 100 | –
2 | CC(=O)OC1C=C2CC(OC(=O)C3COC(C)(C)O3)CCC2(C)C2CCC3(C)C(C(C)CCCC(C)C)CCC3C12 (centres unmarked) [Molecule 2.b, 7-acetoxy-10,13-dimethyl-17-(6-methylheptan-2-yl)-2,3,4,7,8,9,10,11,12,13,14,15,16,17-tetradecahydro-1H-cyclopenta[a]phenanthren-3-yl 2,2-dimethyl-1,3-dioxolane-4-carboxylate] | – | no viable cell is observed
